Consider 1 molecule from ChEMBL document CHEMBL5579839, “Discovery of new cyclopropane sulfonamide derivatives as EGFR inhibitors to overcome C797S-mediated resistance and EGFR double mutation” (Eur J Med Chem, 2024).

Molecules are shown by their SMILES. Activity calls are given as the source filed them. The calls are words filed in the database; no cut-off is given here.

Data set [1] is described as follows: Toxicity in nude mouse allografted with mouse BaF3 cells assessed as animal abnormality at 50 mg/kg, po measured for 7 days. Format: organism-based. The note with it: in vivo, 168 h, time 7 day.
Data set [2] concerns BaF3. The data set can be described thus: Induction of cell death in outer layer of cell spheres of mouse BaF3 cells harboring EGFR L858R/T790M/C797S mutant at 1 nM by Calcein AM/PI staining based analysis. Format: functional.
The target in data set [3] is T1, Epidermal growth factor receptor (Homo sapiens, UniProt P00533). Briefly: Inhibition of EGFR phosphorylation in human NCI-H1975 cells assessed as reduction in red fluorescence incubated for 24 hrs by immunofluorescence analysis. It counts as cell-based.
T1 sequence (P00533 whole entry): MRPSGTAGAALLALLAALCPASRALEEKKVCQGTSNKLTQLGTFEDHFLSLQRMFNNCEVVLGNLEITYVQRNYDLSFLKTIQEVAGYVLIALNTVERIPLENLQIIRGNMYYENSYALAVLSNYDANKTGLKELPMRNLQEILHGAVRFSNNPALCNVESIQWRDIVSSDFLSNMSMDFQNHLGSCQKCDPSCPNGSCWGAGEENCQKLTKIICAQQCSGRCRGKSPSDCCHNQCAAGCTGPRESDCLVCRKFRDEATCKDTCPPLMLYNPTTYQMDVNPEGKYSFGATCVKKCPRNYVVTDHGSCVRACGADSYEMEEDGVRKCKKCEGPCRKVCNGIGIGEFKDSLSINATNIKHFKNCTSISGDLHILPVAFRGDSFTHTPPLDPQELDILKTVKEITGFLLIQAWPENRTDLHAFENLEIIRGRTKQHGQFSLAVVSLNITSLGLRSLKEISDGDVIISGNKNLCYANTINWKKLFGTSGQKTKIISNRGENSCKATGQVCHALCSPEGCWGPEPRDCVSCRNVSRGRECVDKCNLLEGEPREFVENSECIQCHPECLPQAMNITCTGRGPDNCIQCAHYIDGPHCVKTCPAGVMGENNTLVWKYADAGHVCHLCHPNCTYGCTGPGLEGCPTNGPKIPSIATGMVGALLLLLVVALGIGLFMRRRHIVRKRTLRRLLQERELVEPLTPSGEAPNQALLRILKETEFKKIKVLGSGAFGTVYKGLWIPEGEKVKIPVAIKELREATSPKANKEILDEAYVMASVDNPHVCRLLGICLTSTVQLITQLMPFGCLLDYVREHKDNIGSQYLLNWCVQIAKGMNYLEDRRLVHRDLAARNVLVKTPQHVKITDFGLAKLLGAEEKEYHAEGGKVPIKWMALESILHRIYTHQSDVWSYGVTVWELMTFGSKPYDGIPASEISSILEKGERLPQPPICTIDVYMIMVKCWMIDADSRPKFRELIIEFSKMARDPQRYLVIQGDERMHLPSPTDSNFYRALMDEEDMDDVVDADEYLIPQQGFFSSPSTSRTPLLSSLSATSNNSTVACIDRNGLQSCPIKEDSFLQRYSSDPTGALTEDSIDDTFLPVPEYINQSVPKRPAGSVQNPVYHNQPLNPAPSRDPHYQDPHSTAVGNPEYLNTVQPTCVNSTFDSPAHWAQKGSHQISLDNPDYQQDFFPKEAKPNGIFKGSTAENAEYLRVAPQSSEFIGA
Data set [4] deals with Platelet-derived growth factor receptor beta (Homo sapiens) (UniProt P09619). Briefly: Binding affinity to PDGFR (unknown origin) at 100 nM by kinase profiling analysis.
Sequence of Platelet-derived growth factor receptor beta (Homo sapiens) (P09619 whole entry): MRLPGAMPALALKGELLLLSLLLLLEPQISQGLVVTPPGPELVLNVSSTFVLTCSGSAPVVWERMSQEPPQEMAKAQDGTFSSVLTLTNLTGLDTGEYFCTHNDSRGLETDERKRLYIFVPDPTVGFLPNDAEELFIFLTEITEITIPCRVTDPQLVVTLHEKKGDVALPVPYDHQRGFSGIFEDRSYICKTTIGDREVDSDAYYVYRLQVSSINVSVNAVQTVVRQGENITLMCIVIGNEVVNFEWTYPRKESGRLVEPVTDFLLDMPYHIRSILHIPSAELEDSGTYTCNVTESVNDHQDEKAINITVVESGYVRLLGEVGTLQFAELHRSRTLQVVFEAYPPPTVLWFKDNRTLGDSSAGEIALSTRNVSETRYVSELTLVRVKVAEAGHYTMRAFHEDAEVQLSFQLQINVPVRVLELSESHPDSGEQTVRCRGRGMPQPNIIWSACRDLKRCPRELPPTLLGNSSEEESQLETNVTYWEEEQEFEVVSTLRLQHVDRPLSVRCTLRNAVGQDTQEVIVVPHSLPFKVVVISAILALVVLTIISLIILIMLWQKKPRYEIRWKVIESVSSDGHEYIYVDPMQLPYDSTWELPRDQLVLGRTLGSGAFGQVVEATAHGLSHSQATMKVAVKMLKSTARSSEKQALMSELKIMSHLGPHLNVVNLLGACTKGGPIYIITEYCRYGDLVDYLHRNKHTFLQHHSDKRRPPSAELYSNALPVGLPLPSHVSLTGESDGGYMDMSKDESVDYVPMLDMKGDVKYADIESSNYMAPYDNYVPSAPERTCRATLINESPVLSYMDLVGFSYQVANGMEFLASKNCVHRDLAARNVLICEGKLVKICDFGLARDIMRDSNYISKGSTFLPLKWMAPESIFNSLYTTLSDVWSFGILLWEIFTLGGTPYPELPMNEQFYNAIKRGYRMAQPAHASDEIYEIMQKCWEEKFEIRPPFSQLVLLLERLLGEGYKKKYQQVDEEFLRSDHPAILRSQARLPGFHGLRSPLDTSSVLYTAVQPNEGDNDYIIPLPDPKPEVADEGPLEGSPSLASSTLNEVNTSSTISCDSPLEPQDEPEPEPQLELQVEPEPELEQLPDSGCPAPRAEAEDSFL
Data set [5] has as its system BaF3. Briefly: Antiproliferative activity against mouse BaF3 cells harboring EGFR C797S/L858R/T790M mutant. It counts as functional, cell-based.
The nature of data set [6]: Toxicity in nude mouse allografted with mouse BaF3 cells assessed as damage in spleen at 50 mg/kg, po for 7 days by H and E staining based analysis. It counts as organism-based. The note with it: in vivo, 168 h, time 7 day.
Data set [7] in a line: Cytotoxicity against VEGF-stimulated human HUVEC cells. Format: toxicity, cell-based.
For data set [8], the system named is BaF3. Briefly: Induction of apoptosis in mouse BaF3 cells harboring EGFR L858R/T790M/C797S mutant assessed as early apoptotic cells at 10 nM incubated for 24 hrs by Annexin V-FITC/PI staining based flow cytometry (reference value: 0.15 %). It counts as functional. Background: Flow cytometry measures light scatter and fluorescence of single cells or particles in a stream.

Data set [9] relates to NCI-H1975. Briefly: Inhibition of cell migration in human NCI-H1975 cells at 10 nM incubated for 24 hrs by scratch healing assay relative to control. Format: functional.
Data set [10] concerns NCI-H1975. Briefly: Antitumor activity against human NCI-H1975 cells xenografted in nude mouse at 50 mg/kg, po measured for 7 days relative to control. The conditions noted are these: NCI-H1975, 168 h, time 7 day, read-out: TGI. It counts as functional. In general terms: A xenograft is tissue or cells of one species grown in another, often human tumour cells in immunodeficient mice.

A short description of data set [11]: Toxicity in nude mouse allografted with mouse BaF3 cells assessed as damage in heart at 50 mg/kg, po for 7 days by H and E staining based analysis. It counts as organism-based. The note with it: in vivo, 168 h, time 7 day.
Data set [12] has as its system NCI-H1975. Briefly: Inhibition of cell migration in human NCI-H1975 cells by transwell assay. Format: functional, cell-based.
Data set [13] is described as follows: Toxicity in nude mouse allografted with mouse BaF3 cells assessed as animal health at 50 mg/kg, po measured for 7 days. Format: organism-based. The conditions noted are these: in vivo, 168 h, time 7 day.
Data set [14] deals with NCI-H1975. Briefly: Induction of apoptosis in human NCI-H1975 cells assessed as necrotic cells at 10 nM incubated for 24 hrs by Annexin V-FITC/PI staining based flow cytometry (reference value: 2.89 %). It counts as functional.
Data set [15] has as its target Vascular endothelial growth factor receptor 2 (Homo sapiens) (UniProt P35968). The data set can be described thus: Binding affinity to KDR (unknown origin) at 100 nM by kinase profiling analysis.
Data set [16] has as its system BaF3. Briefly: Inhibition of EGFR L858R/T790M/C797S mutant in mouse BaF3 cells assessed as reduction in AKT phosphorylation incubated for 24 hrs by Western blot analysis. Format: cell-based. The conditions noted are these: dose <= 100.0 nM.
A short description of data set [17]: Toxicity in nude mouse allografted with mouse BaF3 cells assessed as damage in lung at 50 mg/kg, po for 7 days by H and E staining based analysis. Format: organism-based. The note with it: in vivo, 168 h, time 7 day.
Data set [18] has as its system BaF3. The data set can be described thus: Antitumor activity against mouse BaF3 cells allografted in nude mouse assessed as reduction of tumor weight at 50 mg/kg, po measured for 7 days. Format: functional, organism-based. The note with it: time 7.0 day.
Data set [19] concerns NCI-H1975. Briefly: Inhibition of colony formation in human NCI-H1975 cells at 5 to 10 nM by crystal violet staining based analysis. It counts as functional, cell-based. The note with it: dose 5-10 nM.
Data set [20] concerns NCI-H1975. Briefly: Inhibition of neovascularization in human NCI-H1975 cells xenografted in nude mouse at 50 mg/kg, po for 7 days by IHC analysis. It counts as functional, organism-based. The conditions noted are these: time 7.0 day.
The test system of data set [21] is BaF3. Briefly: Induction of apoptosis in mouse BaF3 cells harboring EGFR L858R/T790M/C797S mutant assessed as viable cells at 10 nM incubated for 24 hrs by Annexin V-FITC/PI staining based flow cytometry (reference value: 99.77 %). Format: functional. The note with it: read-out: Activity.
For data set [22], the system named is NCI-H1975. The data set can be described thus: Induction of apoptosis in human NCI-H1975 cells assessed as increase in green fluorescence at 10 to 25 nM by TUNNEL method. It counts as functional, cell-based. The conditions noted are these: dose 10-25 nM.
The target of data set [23] is T1, Epidermal growth factor receptor. Briefly: Inhibition of EGFR in human NCI-H1975 cells assessed as reduction in AKT phosphorylation incubated for 24 hrs by Western blot analysis. It counts as cell-based. The conditions noted are these: dose <= 50.0 nM.

Sequence of Vascular endothelial growth factor receptor 2 (Homo sapiens) (P35968 whole entry): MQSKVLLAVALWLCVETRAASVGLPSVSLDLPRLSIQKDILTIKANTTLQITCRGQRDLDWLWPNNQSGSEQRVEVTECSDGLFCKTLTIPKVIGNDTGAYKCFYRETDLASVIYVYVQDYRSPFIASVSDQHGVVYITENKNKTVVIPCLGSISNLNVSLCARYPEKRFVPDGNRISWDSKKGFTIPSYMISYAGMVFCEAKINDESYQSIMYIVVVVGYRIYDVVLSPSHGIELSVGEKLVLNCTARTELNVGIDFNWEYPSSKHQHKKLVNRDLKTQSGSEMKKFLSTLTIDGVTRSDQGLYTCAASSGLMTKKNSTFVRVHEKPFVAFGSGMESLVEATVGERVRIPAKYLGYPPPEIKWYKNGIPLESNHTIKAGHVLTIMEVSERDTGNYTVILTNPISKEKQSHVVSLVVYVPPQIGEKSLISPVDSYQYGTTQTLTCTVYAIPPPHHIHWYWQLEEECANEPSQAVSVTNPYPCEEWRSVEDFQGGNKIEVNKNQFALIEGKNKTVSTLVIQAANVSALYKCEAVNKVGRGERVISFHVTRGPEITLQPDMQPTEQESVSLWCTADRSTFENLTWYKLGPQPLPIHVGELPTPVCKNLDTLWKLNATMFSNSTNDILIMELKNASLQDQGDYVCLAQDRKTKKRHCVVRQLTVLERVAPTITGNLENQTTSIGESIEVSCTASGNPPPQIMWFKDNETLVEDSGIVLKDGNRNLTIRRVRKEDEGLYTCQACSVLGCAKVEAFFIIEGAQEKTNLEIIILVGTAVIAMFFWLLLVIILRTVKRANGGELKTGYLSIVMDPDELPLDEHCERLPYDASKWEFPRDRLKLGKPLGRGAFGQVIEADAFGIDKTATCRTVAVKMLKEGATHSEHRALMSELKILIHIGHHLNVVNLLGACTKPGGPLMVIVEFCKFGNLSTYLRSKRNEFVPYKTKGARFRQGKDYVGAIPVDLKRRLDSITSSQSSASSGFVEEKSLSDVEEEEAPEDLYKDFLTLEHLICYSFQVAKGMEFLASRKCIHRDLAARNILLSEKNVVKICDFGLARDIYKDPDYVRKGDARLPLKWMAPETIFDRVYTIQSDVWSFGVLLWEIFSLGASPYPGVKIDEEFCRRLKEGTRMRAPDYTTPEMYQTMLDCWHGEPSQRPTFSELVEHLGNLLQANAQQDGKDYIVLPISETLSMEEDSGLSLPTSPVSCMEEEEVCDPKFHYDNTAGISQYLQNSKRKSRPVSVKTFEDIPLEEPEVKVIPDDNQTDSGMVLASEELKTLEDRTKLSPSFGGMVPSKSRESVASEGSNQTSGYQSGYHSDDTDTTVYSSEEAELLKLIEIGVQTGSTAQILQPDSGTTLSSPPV

As a reminder, the inhibition is the percentage by which the read-out fell short of the control. In general, IC50 refers to the midpoint of a concentration-inhibition curve. Low readings indicate greater potency in that assay, high ones weaker potency in that assay. On to `CN1CCCN(c2ccc(Nc3ncc(Br)c(Nc4ccccc4NS(=O)(=O)C4CC4)n3)cc2)CC1`, for which the Activity entry in data set [1] is given as “Non-Toxic”; in [6] it was “Non-Toxic”; in the data set on BaF3 [8], 9.36%; in data set [11], “Non-Toxic”; in data set [13] it was “Non-Toxic”; in the data set on NCI-H1975 [14] it was 2.98%. For the same molecule, the Activity result in [17] was “Non-Toxic”. Besides, the result (with BaF3 [2]; in data set [4]; in data set [15]; with BaF3 [18]; with NCI-H1975 [22]) was Active. In addition, the inhibition result (in data set [3]; in the data set on NCI-H1975 [12]; in the data set on NCI-H1975 [19]; with NCI-H1975 [20]) was “Active” in each case. The IC50 worked out at 4 nM in the data set on BaF3 [5] and 799 nM in [7]. Further, the inhibition at 0.01 µM with NCI-H1975 [9] was 92%. Moreover, in the data set with NCI-H1975 [10], the inhibition in vivo at 50 mg/kg was determined as 83.5%. Also, the inhibition result (with BaF3 [16]; in [23]) was “Dose-Dependent Effect” throughout. The viability at 0.01 µM with BaF3 [21] came to 20.7%.
